Where a SMILES comes first, the peptide text is derived from it. Bridges are numbered along the chain shown (N, C = ends). [ ]: non-standard residue; d: D form. ξ: configuration not given here. Bip(2'-Et-4'-OMe) = CCc1cc(OC)ccc1-c1ccc(C[C@H](N)C(=O)O)cc1; αMePhe(2,6-F2) = C[C@](N)(Cc1c(F)cccc1F)C(=O)O; ξαMePhe(2,6-F2) = CC(N)(Cc1c(F)cccc1F)C(=O)O; Bip = N[C@@H](Cc1ccc(-c2ccccc2)cc1)C(=O)O; αMePhe(2-F) = C[C@](N)(Cc1ccccc1F)C(=O)O; hhPhe = N[C@@H](CCCc1ccccc1)C(=O)O; αMeF = C[C@](N)(Cc1ccccc1)C(=O)O; ξαMeF = CC(N)(Cc1ccccc1)C(=O)O; Pen = CC(C)(S)[C@H](N)C(=O)O; Aib = CC(C)(N)C(=O)O
molecular target: Glucagon-like peptide 1 receptor (Homo sapiens, UniProt P43220); assay: Agonist activity at human GLP-1R expressed in CHO-K1 cells assessed as increase in cAMP level incubated for 30 mins; assay type: functional, cell-based
Sequence (P43220 whole entry): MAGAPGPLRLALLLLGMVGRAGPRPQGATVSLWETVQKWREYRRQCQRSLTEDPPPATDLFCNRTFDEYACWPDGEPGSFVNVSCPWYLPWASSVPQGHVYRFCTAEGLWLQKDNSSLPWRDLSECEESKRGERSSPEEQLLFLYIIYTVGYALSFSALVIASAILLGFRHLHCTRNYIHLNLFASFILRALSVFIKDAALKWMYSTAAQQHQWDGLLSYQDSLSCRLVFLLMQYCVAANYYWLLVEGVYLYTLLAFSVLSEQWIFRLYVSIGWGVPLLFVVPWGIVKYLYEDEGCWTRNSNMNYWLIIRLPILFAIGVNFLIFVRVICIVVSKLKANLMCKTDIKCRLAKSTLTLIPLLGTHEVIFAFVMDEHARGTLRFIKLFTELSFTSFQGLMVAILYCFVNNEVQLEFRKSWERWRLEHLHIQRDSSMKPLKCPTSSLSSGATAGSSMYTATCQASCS

CCc1cc(OC)ccc1-c1ccc(C[C@H](NC(=O)[C@H](CC(=O)O)NC(=O)[C@H](CS)NC(=O)[C@@H](NC(=O)[C@](C)(Cc2ccccc2F)NC(=O)[C@@H](NC(=O)CNC(=O)[C@H](CCC(=O)O)NC(=O)C(C)(C)NC(=O)[C@@H](N)Cc2cnc[nH]2)[C@@H](C)O)[C@@H](C)O)C(=O)N[C@@H](CCCc2ccccc2)C(=O)N[C@H](CS)C(N)=O)cc1 and CCc1cc(OC)ccc1-c1ccc(C[C@H](NC(=O)[C@H](CC(=O)O)NC(=O)[C@H](CO)NC(=O)[C@@H](NC(=O)[C@](C)(Cc2ccccc2F)NC(=O)[C@H](CS)NC(=O)CNC(=O)[C@H](CCC(=O)O)NC(=O)C(C)(C)NC(=O)[C@@H](N)Cc2cnc[nH]2)[C@@H](C)O)C(=O)N[C@@H](CCCc2ccccc2)C(=O)N[C@H](CS)C(N)=O)cc1 cannot be ordered by EC50: 1150 nM for the first, > 1000 nM for the second.

First: CCc1cc(OC)ccc1-c1ccc(C[C@@H]2NC(=O)[C@H](CC(=O)O)NC(=O)[C@H](CO)NC(=O)[C@@H]3CSSC[C@@H](C(=O)O)NC(=O)[C@H](CSSC[C@H](NC(=O)CNC(=O)[C@H](CCC(=O)O)NC(=O)C(C)(C)NC(=O)[C@H](Cc4cnc[nH]4)NC(C)=O)C(=O)N[C@@](C)(Cc4c(F)cccc4F)C(=O)N3)NC(=O)[C@H](CC(C)C)NC(=O)[C@H](CCCc3ccccc3)NC2=O)cc1 (Ac-H[Aib]EGC[αMePhe(2,6-F2)]CSD[Bip(2'-Et-4'-OMe)][hhPhe]LCC-OH; disulfide 5-13, 7-14)
Second: CCc1cc(OC)ccc1-c1ccc(C[C@@H]2NC(=O)[C@H](CC(=O)O)NC(=O)[C@H](CO)NC(=O)[C@@H]3CSSC[C@@H](C(=O)O)NC(=O)[C@H](CSSC[C@H](NC(=O)CNC(=O)[C@H](CCC(=O)O)NC(=O)C(C)(C)NC(=O)[C@@H](N)Cc4cnc[nH]4)C(=O)NC(C)(Cc4c(F)cccc4F)C(=O)N3)NC(=O)[C@H](CC(C)C)NC(=O)[C@H](CCCc3ccccc3)NC2=O)cc1 (stereo partly specified) (H-H[Aib]EGC[ξαMePhe(2,6-F2)]CSD[Bip(2'-Et-4'-OMe)][hhPhe]LCC-OH; disulfide 5-13, 7-14)
The EC50 of the first is 6.2-fold lower: 69 nM for the first, 430 nM for the second. The first is the more potent here.

Compared with CCc1cc(OC)ccc1-c1ccc(C[C@H](NC(=O)[C@H](CC(=O)O)NC(=O)[C@H](CO)NC(=O)[C@@H](NC(=O)[C@](C)(Cc2ccccc2)NC(=O)[C@@H](NC(=O)CNC(=O)[C@H](CCC(=O)O)NC(=O)[C@@H]2CCCN2C(=O)[C@@H](N)Cc2cnc[nH]2)[C@@H](C)O)[C@@H](C)O)C(=O)N[C@@H](CCCc2ccccc2)C(=O)N[C@H]2CSSC[C@@H](C(=O)N[C@@H](CO)C(=O)O)NC(=O)[C@H](CC(C)C)NC(=O)[C@H](CC(C)C)NC(=O)CNC(=O)[C@H](CC(C)C)NC(=O)[C@H](CC(C)C)NC(=O)[C@H](CC(C)C)NC(=O)CNC(=O)CNC2=O)cc1 (H-HPEGT[αMeF]TSD[Bip(2'-Et-4'-OMe)][hhPhe]CGGLLLGLLCS-OH; disulfide 12-21), CCc1cc(OC)ccc1-c1ccc(C[C@H](NC(=O)[C@H](CC(=O)O)NC(=O)[C@H](CO)NC(=O)[C@@H](NC(=O)[C@](C)(Cc2c(F)cccc2F)NC(=O)[C@@H](NC(=O)CNC(=O)[C@H](CCC(=O)O)NC(=O)[C@@H]2CCCN2C(=O)[C@@H](N)Cc2cnc[nH]2)[C@@H](C)O)[C@@H](C)O)C(=O)N[C@@H](CCCc2ccccc2)C(=O)N[C@H]2CSSC[C@@H](C(=O)N[C@@H](CO)C(=O)O)NC(=O)[C@H](C(C)C)NC(=O)[C@H](C(C)C)NC(=O)CNC(=O)[C@H](C(C)C)NC(=O)[C@H](C(C)C)NC(=O)[C@H](C(C)C)NC(=O)CNC(=O)CNC2=O)cc1 (H-HPEGT[αMePhe(2,6-F2)]TSD[Bip(2'-Et-4'-OMe)][hhPhe]CGGVVVGVVCS-OH; disulfide 12-21) is 6.8-fold lower in EC50: 130 nM for the first, 19 nM for the second.

Going from CCc1cc(OC)ccc1-c1ccc(C[C@H](NC(=O)[C@H](CC(=O)O)NC(=O)[C@H](CO)NC(=O)[C@@H](NC(=O)[C@](C)(Cc2ccccc2)NC(=O)[C@@H](NC(=O)CNC(=O)[C@H](CCC(=O)O)NC(=O)[C@@H]2CCCN2C(=O)[C@@H](N)Cc2cnc[nH]2)[C@@H](C)O)[C@@H](C)O)C(=O)N[C@@H](CCCc2ccccc2)C(=O)N[C@H]2CSSC[C@@H](C(=O)N[C@@H](CO)C(=O)O)NC(=O)[C@H](C)NC(=O)CNC(=O)CNC(=O)CNC(=O)[C@H](C)NC(=O)[C@H](C)NC(=O)[C@H](Cc3ccc(-c4ccccc4)cc3)NC(=O)CNC2=O)cc1 (H-HPEGT[αMeF]TSD[Bip(2'-Et-4'-OMe)][hhPhe]CG[Bip]AAGGGACS-OH; disulfide 12-21) to CCc1cc(OC)ccc1-c1ccc(C[C@H](NC(=O)[C@H](CC(=O)O)NC(=O)[C@H](CO)NC(=O)[C@@H](NC(=O)[C@](C)(Cc2c(F)cccc2F)NC(=O)[C@@H](NC(=O)CNC(=O)[C@H](CCC(=O)O)NC(=O)[C@@H]2CCCN2C(=O)[C@@H](N)Cc2cnc[nH]2)[C@@H](C)O)[C@@H](C)O)C(=O)N[C@@H](CCCc2ccccc2)C(=O)N[C@H]2CSSC[C@@H](C(=O)N[C@@H](CO)C(=O)O)NC(=O)[C@H](C)NC(=O)CNC(=O)CNC(=O)CNC(=O)[C@H](C)NC(=O)[C@H](C)NC(=O)[C@H](Cc3ccc(-c4ccccc4)cc3)NC(=O)CNC2=O)cc1 (H-HPEGT[αMePhe(2,6-F2)]TSD[Bip(2'-Et-4'-OMe)][hhPhe]CG[Bip]AAGGGACS-OH; disulfide 12-21), the EC50 falls from 47 nM to 2.4 nM (20-fold). The second is the more potent here.

Compared with CCc1cc(OC)ccc1-c1ccc(C[C@H](NC(=O)[C@H](CC(=O)O)NC(=O)[C@H](CO)NC(=O)[C@@H](NC(=O)[C@](C)(Cc2c(F)cccc2F)NC(=O)[C@@H](NC(=O)CNC(=O)[C@H](CCC(=O)O)NC(=O)[C@@H]2CCCN2C(=O)[C@@H](N)Cc2cnc[nH]2)[C@@H](C)O)[C@@H](C)O)C(=O)N[C@@H](CCCc2ccccc2)C(=O)N[C@H]2CSSC[C@@H](C(=O)N[C@@H](CO)C(N)=O)NC(=O)[C@H](C)NC(=O)CNC(=O)CNC(=O)CNC(=O)[C@H](C)NC(=O)[C@H](C)NC(=O)CNC(=O)CNC2=O)cc1 (H-HPEGT[αMePhe(2,6-F2)]TSD[Bip(2'-Et-4'-OMe)][hhPhe]CGGAAGGGACS-NH2; disulfide 12-21), CCc1cc(OC)ccc1-c1ccc(C[C@H](NC(=O)[C@H](CC(=O)O)NC(=O)[C@H](CO)NC(=O)[C@@H](NC(=O)[C@](C)(Cc2c(F)cccc2F)NC(=O)[C@@H](NC(=O)CNC(=O)[C@H](CCC(=O)O)NC(=O)[C@@H]2CCCN2C(=O)[C@@H](N)Cc2cnc[nH]2)[C@@H](C)O)[C@@H](C)O)C(=O)N[C@@H](CCCc2ccccc2)C(=O)N[C@H]2CSSC[C@@H](C(=O)N[C@@H](CO)C(=O)O)NC(=O)[C@H](C)NC(=O)CNC(=O)CNC(=O)CNC(=O)[C@H](C)NC(=O)[C@H](C)NC(=O)CNC(=O)CNC2=O)cc1 (H-HPEGT[αMePhe(2,6-F2)]TSD[Bip(2'-Et-4'-OMe)][hhPhe]CGGAAGGGACS-OH; disulfide 12-21) is 15-fold lower in EC50: 13 nM for the first, 0.85 nM for the second.

First: CCc1cc(OC)ccc1-c1ccc(C[C@H](NC(=O)[C@H](CC(=O)O)NC(=O)[C@H](CO)NC(=O)[C@@H](NC(=O)[C@](C)(Cc2c(F)cccc2F)NC(=O)[C@@H](NC(=O)CNC(=O)[C@H](CCC(=O)O)NC(=O)[C@@H]2CCCN2C(=O)[C@@H](N)Cc2cnc[nH]2)[C@@H](C)O)[C@@H](C)O)C(=O)N[C@@H](CCCc2ccccc2)C(=O)N[C@H](C(=O)NCC(=O)NCC(=O)N[C@@H](C)C(=O)N[C@@H](C)C(=O)NCC(=O)NCC(=O)NCC(=O)N[C@@H](C)C(=O)N[C@H](C(=O)N[C@@H](CO)C(=O)O)C(C)(C)S)C(C)(C)S)cc1 (H-HPEGT[αMePhe(2,6-F2)]TSD[Bip(2'-Et-4'-OMe)][hhPhe][Pen]GGAAGGGA[Pen]S-OH)
Second: CCc1cc(OC)ccc1-c1ccc(C[C@H](NC(=O)[C@H](CC(=O)O)NC(=O)[C@H](CO)NC(=O)[C@@H](NC(=O)[C@](C)(Cc2ccccc2F)NC(=O)[C@@H](NC(=O)CNC(=O)[C@H](CCC(=O)O)NC(=O)[C@@H]2CCCN2C(=O)[C@@H](N)Cc2cnc[nH]2)[C@@H](C)O)[C@@H](C)O)C(=O)N[C@@H](CCCc2ccccc2)C(=O)N[C@H]2CSSC[C@@H](C(=O)N[C@@H](CO)C(=O)O)NC(=O)[C@H](C)NC(=O)CNC(=O)CNC(=O)CNC(=O)[C@H](C)NC(=O)[C@H](C)NC(=O)CNC(=O)CNC2=O)cc1 (H-HPEGT[αMePhe(2-F)]TSD[Bip(2'-Et-4'-OMe)][hhPhe]CGGAAGGGACS-OH; disulfide 12-21)
The EC50 of the first is 2.5-fold higher: 2.5 nM for the first, 1 nM for the second.

First: CCc1cc(OC)ccc1-c1ccc(C[C@@H]2NC(=O)[C@H](CC(=O)O)NC(=O)[C@H](CO)NC(=O)[C@@H]3CSSC[C@@H](C(=O)O)NC(=O)[C@H](CSSC[C@H](NC(=O)CNC(=O)[C@H](CCC(=O)O)NC(=O)C(C)(C)NC(=O)[C@@H](N)Cc4cnc[nH]4)C(=O)N[C@@H](Cc4ccccc4)C(=O)N3)NC(=O)[C@H](CC(C)C)NC(=O)[C@H](CCCc3ccccc3)NC2=O)cc1 (H-H[Aib]EGCFCSD[Bip(2'-Et-4'-OMe)][hhPhe]LCC-OH; disulfide 5-13, 7-14)
Second: CCc1cc(OC)ccc1-c1ccc(C[C@@H]2NC(=O)[C@H](CC(=O)O)NC(=O)[C@H](CO)NC(=O)[C@@H]3CSSC[C@@H](C(=O)O)NC(=O)[C@H](CSSC[C@H](NC(=O)CNC(=O)[C@H](CCC(=O)O)NC(=O)C(C)(C)NC(=O)[C@@H](N)Cc4cnc[nH]4)C(=O)NC(C)(Cc4ccccc4)C(=O)N3)NC(=O)[C@H](CC(C)C)NC(=O)[C@H](CCCc3ccccc3)NC2=O)cc1 (stereo partly specified) (H-H[Aib]EGC[ξαMeF]CSD[Bip(2'-Et-4'-OMe)][hhPhe]LCC-OH; disulfide 5-13, 7-14)
The EC50 of the first is 10-fold higher: 16000 nM for the first, 1600 nM for the second. The second is the more potent here.

First: CCc1cc(OC)ccc1-c1ccc(C[C@@H]2NC(=O)[C@H](CC(=O)O)NC(=O)[C@H](CO)NC(=O)[C@@H]3CSSC[C@@H](C(=O)O)NC(=O)[C@H](CSSC[C@H](NC(=O)CNC(=O)[C@H](CCC(=O)O)NC(=O)C(C)(C)NC(=O)[C@@H](N)Cc4cnc[nH]4)C(=O)N[C@@](C)(Cc4c(F)cccc4F)C(=O)N3)NC(=O)[C@H](Cc3ccc(-c4ccccc4)cc3)NC(=O)[C@H](CCCc3ccccc3)NC2=O)cc1 (H-H[Aib]EGC[αMePhe(2,6-F2)]CSD[Bip(2'-Et-4'-OMe)][hhPhe][Bip]CC-OH; disulfide 5-13, 7-14)
Second: CCc1cc(OC)ccc1-c1ccc(C[C@H](NC(=O)[C@H](CS)NC(=O)[C@H](CO)NC(=O)[C@@H](NC(=O)[C@](C)(Cc2ccccc2F)NC(=O)[C@H](CS)NC(=O)CNC(=O)[C@H](CCC(=O)O)NC(=O)C(C)(C)NC(=O)[C@@H](N)Cc2cnc[nH]2)[C@@H](C)O)C(=O)N[C@@H](CCCc2ccccc2)C(N)=O)cc1 (H-H[Aib]EGC[αMePhe(2-F)]TSC[Bip(2'-Et-4'-OMe)][hhPhe]-NH2)
The EC50 of the first is 8.8-fold higher: 7500 nM for the first, 850 nM for the second. The second is the more potent here.
